From US10947216B2, “Amide compounds and method for making and using” (Rigel Pharmaceuticals, Inc., priority 2016, dated 2021) come the findings set out here.

Where a name gives a salt, the structure may show the parent alone. Read-outs that look alike come from different tables or passages of the source.

The test system of assay [1] is IL-23 (p19/p40). As to the kind of experiment: IL23-p19 ELISA, dendritic cells (DC differentiated from human PBMC, IFNγ primed), LPS stimulated. The class given is cell-based. The following applies: Dendritic cell, human PBMC-derived dendritic cells, 1 h compound pre-incubation, LPS 1 μg/ml 18 hours, 10 pt. A digest of the protocol: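 PBMC-derived DCs (GM-CSF 100 ng/ml + IL-4 20 ng/ml, 7 days) primed 24 h with IFNγ 50 ng/ml, 50K cells/well; compound pre-incubated 1 h at 37° C, then LPS, 18 h. Supernatant IL-23 by p19-capture/p40-detection chemiluminescent ELISA; cytotoxicity by Cell Titer Glo.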
Background: ELISA stands for enzyme-linked immunosorbent assay.

Assay [2] concerns IL-23p19. Nature of the assay: LPS Induced IL23p19 in THP-1 Cells (with IFNγ Primed) Assay. Format: cell-based, human. The following applies: Homo sapiens, IFNγ (50 ng/mL) primed, 1 hour compound pre-incubation, LPS 1 ug/mL 18 hours, 10 pt, read-out: IL23-p19 ELISA, THP1-IFNy, LPS, 10 pt EC50. The method in brief:
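THP-1 cells (50K/well) primed ~18 h with IFNγ (50 ng/mL) in RPMI/10% FBS, then incubated with compound in duplicate for 18 h at 37° C. Supernatant IL-23p19 measured by chemiluminescent sandwich ELISA, giving EC50 by curve fitting. Toxicity assessed in parallel on the remaining cells by Cell Titer Glo.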

`O=C(Nc1cn(C2COC2)nc1-c1ccccn1)c1cccc(-c2cccnc2)n1` [Compound I-112, N-(1-(oxetan-3-yl)-3-(pyridin-2-yl)-1H-pyrazol-4-yl)-[2,3′-bipyridine]-6-carboxamide]: the EC50 – broadly, the concentration giving half of the maximal effect – in assay [1] came to 1280 nM; in assay [2] (THP-1, THP-1 cells), 325 nM.

For the compound `O=C(Nc1cn(C2COC2)nc1-c1ccccn1)c1cccc(Br)n1` [Compound I-113, 6-bromo-N-(1-(oxetan-3-yl)-3-(pyridin-2-yl)-1H-pyrazol-4-yl)picolinamide], the EC50 in assay [1] was determined as 10900 nM; in assay [2] (THP-1, THP-1 cells), 8040 nM.

In the case of `Cc1cncc(-c2cccc(C(=O)Nc3cn(C4COC4)nc3-c3ccccn3)n2)c1` [Compound I-114, 5′-methyl-N-(1-(oxetan-3-yl)-3-(pyridin-2-yl)-1H-pyrazol-4-yl)-[2,3′-bipyridine]-6-carboxamide], the EC50 in assay [1] came to 2330 nM; in assay [2] (THP-1, THP-1 cells), 1760 nM.

As for `CS(=O)(=O)Nc1cncc(-c2cccc(C(=O)Nc3cn(C4COC4)nc3-c3ccccn3)n2)c1` [Compound I-115, 5′-(methylsulfonamido)-N-(1-(oxetan-3-yl)-3-(pyridin-2-yl)-1H-pyrazol-4-yl)-[2,3′-bipyridine]-6-carboxamide], the EC50 came out at 7650 nM in assay [1] and 2180 nM in assay [2] (THP-1, THP-1 cells).

With `O=C(Nc1cn(C2COC2)nc1-c1ccccn1)c1cccc(-c2cn[nH]c2)n1` [Compound I-116, N-(1-(oxetan-3-yl)-3-(pyridin-2-yl)-1H-pyrazol-4-yl)-6-(1H-pyrazol-4-yl)picolinamide], the EC50 in assay [1] amounted to 142 nM; in assay [2] (THP-1, THP-1 cells), 212 nM.

As for `O=C(Nc1cn(C2COC2)nc1-c1ccccn1)c1cccc(-c2cc[nH]n2)n1` [Compound I-117, N-(1-(oxetan-3-yl)-3-(pyridin-2-yl)-1H-pyrazol-4-yl)-6-(1H-pyrazol-3-yl)picolinamide], the EC50 was determined as 100 nM in assay [1] and 156 nM in assay [2] (THP-1, THP-1 cells).

With `CS(=O)(=O)Nc1cncc(-c2cccc(C(=O)Nc3cn(C4COC4)nc3-c3ccccn3)n2)c1` [Compound I-119, sodium (methylsulfonyl)(6-((1-(oxetan-3-yl)-3-(pyridin-2-yl)-1H-pyrazol-4-yl)carbamoyl)-[2,3′-bipyridine]-5′-yl)amide], the results for the EC50 in assay [1] (Homo sapiens) and in assay [2] (THP-1 cells) were 1000 nM and 1020 nM, respectively.

Consider `Cc1cncc(-c2ccnc(C(=O)Nc3cn(C)nc3-c3ccccn3)n2)c1` [Compound I-120, N-(1-methyl-3-(pyridin-2-yl)-1H-pyrazol-4-yl)-4-(5-methylpyridin-3-yl)pyrimidine-2-carboxamide], for which the EC50 in assay [1] was 2990 nM; in assay [2] (THP-1, THP-1 cells), 46900 nM.

On to `Cc1cncc(-c2cncc(C(=O)Nc3cn(C)nc3-c3ccccn3)n2)c1` [Compound I-121, N-(1-methyl-3-(pyridin-2-yl)-1H-pyrazol-4-yl)-6-(5-methylpyridin-3-yl)pyrazine-2-carboxamide], for which the EC50 was 1810 nM in assay [1] and 1070 nM in assay [2] (THP-1, THP-1 cells).

On to `Cn1cc(NC(=O)c2cncc(-c3cn[nH]c3)n2)c(-c2ccccn2)n1` [Compound I-122, N-(1-methyl-3-(pyridin-2-yl)-1H-pyrazol-4-yl)-6-(1H-pyrazol-4-yl)pyrazine-2-carboxamide], for which the EC50 in assay [1] was 3780 nM; in assay [2] (THP-1, THP-1 cells) it was 873 nM.

With `Cn1cc(NC(=O)c2cncc(-c3cc[nH]n3)n2)c(-c2ccccn2)n1` [Compound I-123, N-(1-methyl-3-(pyridin-2-yl)-1H-pyrazol-4-yl)-6-(1H-pyrazol-3-yl)pyrazine-2-carboxamide], the EC50 in assay [1] turned out to be 738 nM; in assay [2] (THP-1, THP-1 cells) it was 921 nM.

For the compound `Cn1cc(NC(=O)c2nccc(-c3cn[nH]c3)n2)c(-c2ccccn2)n1` [Compound I-124, N-(1-methyl-3-(pyridin-2-yl)-1H-pyrazol-4-yl)-4-(1H-pyrazol-4-yl)pyrimidine-2-carboxamide], the EC50 in assay [1] stood at 1540 nM; in assay [2] (THP-1, THP-1 cells), 6640 nM.

As to `O=C(Nc1cn(C2COC2)nc1-c1ccccn1)c1cccc(-c2cncc(F)c2)n1` [Compound I-131, 5′-fluoro-N-(1-(oxetan-3-yl)-3-(pyridin-2-yl)-1H-pyrazol-4-yl)-[2,3′-bipyridine]-6-carboxamide], the EC50 in assay [1] was found to be 12800 nM; in assay [2] (THP-1, THP-1 cells) it was 6620 nM.

With `O=C(Nc1cn(C2COC2)nc1-c1ccccn1)c1cccc(-c2cncc(C(F)(F)F)c2)n1` [Compound I-132, N-(1-(oxetan-3-yl)-3-(pyridin-2-yl)-1H-pyrazol-4-yl)-5′-(trifluoromethyl)-[2,3′-bipyridine]-6-carboxamide], the EC50 in assay [1] turned out to be 7760 nM; in assay [2] (THP-1, THP-1 cells), 54900 nM.

Turning to `NC(=O)c1cncc(-c2cccc(C(=O)Nc3cn(C4COC4)nc3-c3ccccn3)n2)c1` [Compound I-133, N6-(1-(oxetan-3-yl)-3-(pyridin-2-yl)-1H-pyrazol-4-yl)-[2,3′-bipyridine]-5′,6-dicarboxamide], the EC50 in assay [1] came out at 6540 nM; in assay [2] (THP-1, THP-1 cells), 11000 nM.

Turning to `Cn1cc(-c2cccc(C(=O)Nc3cn(C4COC4)nc3-c3ccccn3)n2)cn1` [Compound I-134, 6-(1-methyl-1H-pyrazol-4-yl)-N-(1-(oxetan-3-yl)-3-(pyridin-2-yl)-1H-pyrazol-4-yl)picolinamide], the EC50 in assay [1] came to 2200 nM; in assay [2] (THP-1, THP-1 cells), 1260 nM.

With `Cc1cc(-c2cccc(C(=O)Nc3cn(C4COC4)nc3-c3ccccn3)n2)[nH]n1` [Compound I-136, 6-(3-methyl-1H-pyrazol-5-yl)-N-(1-(oxetan-3-yl)-3-(pyridin-2-yl)-1H-pyrazol-4-yl)picolinamide], the EC50 in assay [1] came to 198 nM; in assay [2] (THP-1, THP-1 cells), 469 nM.

In the case of `Cn1cc(NC(=O)c2ccnc(-c3cn[nH]c3)n2)c(-c2ccccn2)n1` [Compound I-137, N-(1-methyl-3-(pyridin-2-yl)-1H-pyrazol-4-yl)-2-(1H-pyrazol-4-yl)pyrimidine-4-carboxamide], the EC50 amounted to 5060 nM in assay [1] and 4010 nM in assay [2] (THP-1, THP-1 cells).

With `Cn1cc(NC(=O)c2ccnc(-c3cc[nH]n3)n2)c(-c2ccccn2)n1` [Compound I-138, N-(1-methyl-3-(pyridin-2-yl)-1H-pyrazol-4-yl)-2-(1H-pyrazol-3-yl)pyrimidine-4-carboxamide], the EC50 in assay [1] came to 1180 nM; in assay [2] (THP-1, THP-1 cells), 29400 nM.

Consider `COCCOCCn1cc(NC(=O)c2cccc(-c3ccnc(OC)c3)n2)c(-c2ccccn2)n1` [Compound I-141, 2′-methoxy-N-(1-(2-(2-methoxyethoxy)ethyl)-3-(pyridin-2-yl)-1H-pyrazol-4-yl)-[2,4′-bipyridine]-6-carboxamide formate], for which the EC50 in assay [1] was 2840 nM; in assay [2] (THP-1, THP-1 cells) it was 8430 nM.

With `COCCOCCn1cc(NC(=O)c2cccc(-c3ccc(N)nc3)n2)c(-c2ccccn2)n1` [Compound I-142, 6′-amino-N-(1-(2-(2-methoxyethoxy)ethyl)-3-(pyridin-2-yl)-1H-pyrazol-4-yl)-[2,3′-bipyridine]-6-carboxamide formate], the EC50 in assay [1] worked out at 2540 nM; in assay [2] (THP-1, THP-1 cells), 761 nM.

With `COCCOCCn1cc(NC(=O)c2cccc(-c3ccnc(C)c3)n2)c(-c2ccccn2)n1` [Compound I-146, N-(1-(2-(2-methoxyethoxy)ethyl)-3-(pyridin-2-yl)-1H-pyrazol-4-yl)-2′-methyl-[2,4′-bipyridine]-6-carboxamide formate], the concentration for a half-maximal effect (EC50) in assay [1] turned out to be 5900 nM; in assay [2] (THP-1, THP-1 cells), 4240 nM.

In the case of `COCCOCCn1cc(NC(=O)c2cccc(-c3cc4ccc(OC)cc4[nH]3)n2)c(-c2ccccn2)n1` [Compound I-147, 6-(6-methoxy-1H-indol-2-yl)-N-(1-(2-(2-methoxyethoxy)ethyl)-3-(pyridin-2-yl)-1H-pyrazol-4-yl)picolinamide formate], the EC50 was found to be 10700 nM in assay [1] and 41100 nM in assay [2] (THP-1, THP-1 cells).

On to `COCCOCCn1cc(NC(=O)c2cccc(-c3cnn(-c4cccc(Cl)c4)c3)n2)c(-c2ccccn2)n1` [Compound I-148, 6-(1-(3-chiorophenyl)-1H-pyrazol-4-yl)-N-(1-(2-(2-methoxyethoxy)ethyl)-3-(pyridin-2-yl)-1H-pyrazol-4-yl)picolinamide formate], for which the EC50 in assay [1] is 6280 nM; in assay [2] (THP-1, THP-1 cells), 4500 nM.

`COCCOCCn1cc(NC(=O)c2cccc(-c3cncc(C)c3)n2)c(-c2ccccn2)n1` [Compound I-149, N-(1-(2-(2-methoxyethoxy)ethyl)-3-(pyridin-2-yl)-1H-pyrazol-4-yl)-5′-methyl-[2,3′-bipyridine]-6-carboxamide formate]: the EC50 in assay [1] amounted to 1420 nM; in assay [2] (THP-1, THP-1 cells), 1200 nM.

With `COCCOCCn1cc(NC(=O)c2cccc(-c3cc[nH]n3)n2)c(-c2ccccn2)n1` [Compound I-150, N-(1-(2-(2-methoxyethoxy)ethyl)-3-(pyridin-2-yl)-1H-pyrazol-4-yl)-6-(1H-pyrazol-3-yl)picolinamide formate], the EC50 in assay [1] was found to be 66.2 nM; in assay [2] (THP-1, THP-1 cells), 3390 nM.

Turning to `COCCOCCn1cc(NC(=O)c2cccc(-c3ccoc3)n2)c(-c2ccccn2)n1` [Compound I-151, 6-(furan-3-yl)-N-(1-(2-(2-methoxyethoxy)ethyl)-3-(pyridin-2-yl)-1H-pyrazol-4-yl)picolinamide 2,2,2-trifluoroacetate], the 50% effective concentration (EC50) came to 4120 nM in assay [1] and 7880 nM in assay [2] (THP-1, THP-1 cells).
